Assay results published in ChEMBL document CHEMBL1148209, “Isolation and structure determination of cryptophycins 38, 326, and 327 from the terrestrial cyanobacterium Nostoc sp. GSV 224” (J Nat Prod, 2004).

What follows are compounds tested on KB (assay: Cytotoxicity against human KB cells).
Format: functional, cell-based
COc1ccc(C[C@H]2NC(=O)/C=C/C[C@@H]([C@H](C)[C@H]3O[C@H]3c3ccccc3)OC(=O)[C@H](CC(C)C)OC(=O)[C@H](C)CNC2=O)cc1Cl [CRYPTOPHYCIN 39] gave an IC50 of 72 nM.
In the case of COc1c(Cl)cc(C[C@H]2NC(=O)/C=C/C[C@@H]([C@H](C)[C@H]3O[C@@H]3c3ccccc3)OC(=O)[C@H](CC(C)C)OC(=O)CCNC2=O)cc1Cl [CRYPTOPHYCIN 326], the IC50 is reported as 1160 nM.
COc1ccc(C[C@H]2NC(=O)/C=C/C[C@@H]([C@H](C)[C@@H]3O[C@@H]3c3ccccc3)OC(=O)[C@H](CC(C)C)OC(=O)[C@H](C)CNC2=O)cc1Cl [CRYPTOPHYCIN 77] showed an IC50 of 654 nM.
Compound COc1ccc(C[C@H]2NC(=O)/C=C\C[C@@H]([C@H](C)[C@H]3O[C@@H]3c3ccccc3)OC(=O)[C@H](CC(C)C)OC(=O)[C@H](C)CNC2=O)cc1Cl [CRYPTOPHYCIN 327] has an IC50 of 14100 nM.
Work on COc1ccc(C[C@H]2NC(=O)/C=C/C[C@@H]([C@H](C)[C@@H]3O[C@H]3c3ccccc3)OC(=O)[C@H](CC(C)C)OC(=O)[C@H](C)CNC2=O)cc1Cl [CRYPTOPHYCIN 38] yielded an IC50 of 54.7 nM.
